Assay results as given in PMC11302688, “The Effect of Replication Protein A Inhibition and Post-Translational Modification on ATR Kinase Signaling” (Research Square, 2024).
Where two headings read alike, the source gives them in different places.

Experiments:
[1] = test system: ATR phosphorylation events; design: method as in PMID 25070753; details: cited from earlier work
RPA [2] = target: T1, RPA (Homo sapiens, UniProt P27694); design: method as in PMID 25070753; details: cited from earlier work
T1 construct: His (C); made in house; host or cells: E. coli BL21(DE3)

ATR-ATRIP = target: T2, ATR-ATRIP (Homo sapiens, UniProt P27694); assay: Reconstituted ATR kinase assay (western blot of phosphorylation targets); format: biochemical; details: for ATR-dependent phosphorylation of RPA32 Ser33 and Thr21 / ATR-dependent phosphorylation of p53 Ser15: reconstituted reaction with ssDNA, RPA, TopBP1, ATR-ATRIP, western blot; for IC50: fully reconstituted ATR kinase reaction
T2 construct: His (C); purchased Eurofins DiscoverX 14–953
Description: The minimal requirements to reconstitute ATR signaling in vitro are ssDNA, RPA, TopBP1, and ATR-ATRIP, and a phosphorylation target[51]–[54]. We used a similar experimental design with purified RPA, TopBP1, p53, and ATR-ATRIP, and reconstituted ATR activation and signaling using an M13mp18 ssDNA plasmid (Figure S1A-B). It has been reported that TopBP1 can stimulate ATR activity independent of RPA and in the presence or absence of a variety of DNA substrates at specific protein and salt concentrations, though the physiological relevance is unknown. We, therefore, first established physiological experimental conditions to reflect the dependence of ATR kinase activity on RPA, ssDNA, and TopBP1 by monitoring the phosphorylation of the ATR target p53 at Ser15. Low, background levels of ATR-dependent p53 phosphorylation are observed with various combinations of ssDNA, RPA, and TopBP1, however, as expected, maximal activation is observed only in the presence of all three (Fig. 1A–B). Importantly, p53 phosphorylation under our assay conditions was dependent upon RPA and ssDNA. […] (Fig. 1A–B). The RPA70 OB-F domain interacts with p53, and this interaction is thought to facilitate the recruitment of p53 for ATR phosphorylation. p53 also has weak ssDNA binding affinity that could influence it as a substrate for ATR, so we next compared the phosphorylation of wild-type (WT) p53 with that of the DNA-binding-impaired p53 R175H mutant. […] We then evaluated the impact of chemical RPA inhibition on ATR-dependent p53 phosphorylation in the reconstituted reactions. We first assessed the activity of RPA inhibitors that block the RPA-ssDNA interaction (RPA-DBi).
Kinase assays were performed in 15 mM HEPES pH 7.9, 30 mM KCl, 3 mM MgCl2, 5% glycerol, 1x phosphatase inhibitor cocktail 2 (Sigma-Aldrich, P5726), 0.5 mM DTT. RPAi were suspended in 100% DMSO, and the DMSO concentration in the final reaction mixture was kept constant at 5%. In a typical reaction (20 μL), 20 ng ATR-ATRIP, 20 nM TopBP1, 20 nM RPA, and 40 nM p53 were initially incubated on ice for 15 min. Reactions were initiated by the addition of 100 μM ATP and 1 ng M13mp18 ssDNA plasmid and incubated at 37°C for 1 hr. Reactions were quenched by the addition of 6x Laemmli buffer and brief boiling at 95°C. For reactions with RPAi, inhibitors were added for the initial 15 min incubation on ice. For reactions with pRPA, the indicated proteins (same concentrations as above) were incubated with 0.5 ng/μL DNA-PK, 100 μM ATP, and 1 ng M13mp18 ssDNA plasmid for 30 min at 37°C. Reactions were moved back to ice and 100 nM NU7441 was added to inhibit further DNA-PK kinase activity (for subsequent ATR kinase reactions) or quenched with 6x Laemmli buffer and brief boiling at 95°C (for control reactions). The remaining components required for ATR kinase reaction were then added to each reaction as indicated and returned to 37°C for 1 hr before quenching in the same manner as above. Proteins were separated by SDS-PAGE and transferred to polyvinylidene difluoride (PVDF) membranes (Bio-Rad, 1620177). Immunoblotting for RPA32 pSer33 (Thermo Fisher Scientific, A300–246A), RPA32 pSer4/8 (Thermo Fisher Scientific, A300–245A), RPA32 (Thermo Fisher Scientific, PA5–2256), and TopBP1 pSer1138 (Thermo Fisher Scientific, PA5–114666) were conducted in Tris-buffered saline (TBS)/0.5% Tween20 and immunoblotting for p53 pSer15 (Cell Signaling Technology, 9284S), p53 (Cell Signaling Technology, 2524S), and RPA32 pThr21 (Thermo Fisher Scientific, PA5–104809) were conducted in TBS/0.1% Tween20. All membranes were blocked with 2% BSA in TBS/Tween20 and incubated rocking at 4°C overnight. Membranes were washed with TBS/Tween20 and incubated with the corresponding IgG-horseradish peroxidase (HRP) secondary antibody (Bio-Rad, 1706515 & 1706516) for two hours at room temperature with orbital shaking. […]

RPA [3] = target: T1, RPA; details: read-out: in vitro RPA-DNA binding inhibition IC50; cited from earlier work
[4] = target: RPA (His-tagged heterotrimer RPA70/RPA32/RPA14) (UniProt P27694;P15927;P35244 1-616;1-270;1-121); assay: EMSA; binding not disrupted by PAME 12.5-200 uM; PAME EMSA: 10 mM Tris pH 7.5, 10 mM NaCl, 10% glycerol, 25 C, 10 nM DNA, 7 nM (ssDNA) or 14 nM (duplex) RPA, 1% agarose; acetylation EMSA: 20 mM HEPES pH 7.8, 50 mM NaCl, 1 mM DTT, 5% DMSO, 0.001% NP-40, RT, 2.5 nM DNA, 6% native PAGE; details: protein: recombinant; tags: His (on RPA70, plasmid p11d-tRPA70-His); copies: 1;1;1; label: 5' IRDye700; single strand
Sequence of RPA (His-tagged heterotrimer RPA70/RPA32/RPA14) (P27694 whole entry, chain 1 of 3): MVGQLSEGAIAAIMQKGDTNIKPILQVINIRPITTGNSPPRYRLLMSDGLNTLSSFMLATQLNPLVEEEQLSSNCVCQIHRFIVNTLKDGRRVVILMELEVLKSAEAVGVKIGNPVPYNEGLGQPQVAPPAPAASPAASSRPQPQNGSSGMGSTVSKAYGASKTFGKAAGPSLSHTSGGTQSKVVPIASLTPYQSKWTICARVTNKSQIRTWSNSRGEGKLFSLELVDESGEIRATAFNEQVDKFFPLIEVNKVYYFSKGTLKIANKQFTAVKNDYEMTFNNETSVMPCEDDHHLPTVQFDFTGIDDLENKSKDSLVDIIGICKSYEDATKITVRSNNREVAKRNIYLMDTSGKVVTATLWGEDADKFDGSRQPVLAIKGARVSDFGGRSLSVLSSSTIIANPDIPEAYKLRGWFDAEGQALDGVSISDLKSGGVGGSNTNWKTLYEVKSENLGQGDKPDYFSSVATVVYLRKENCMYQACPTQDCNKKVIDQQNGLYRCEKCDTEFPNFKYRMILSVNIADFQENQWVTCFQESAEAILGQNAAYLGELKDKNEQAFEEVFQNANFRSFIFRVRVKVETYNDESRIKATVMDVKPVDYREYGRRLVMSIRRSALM
Sequence of RPA (His-tagged heterotrimer RPA70/RPA32/RPA14) (P15927 whole entry, chain 2 of 3): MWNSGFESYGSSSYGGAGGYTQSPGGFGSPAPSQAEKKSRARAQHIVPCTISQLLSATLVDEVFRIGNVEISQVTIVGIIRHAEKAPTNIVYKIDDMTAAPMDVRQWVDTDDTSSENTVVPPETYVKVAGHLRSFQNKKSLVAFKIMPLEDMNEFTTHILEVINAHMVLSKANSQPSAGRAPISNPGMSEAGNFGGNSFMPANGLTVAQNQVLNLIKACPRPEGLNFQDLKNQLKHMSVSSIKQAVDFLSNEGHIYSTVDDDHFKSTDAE
Sequence of RPA (His-tagged heterotrimer RPA70/RPA32/RPA14) (P35244 whole entry, chain 3 of 3): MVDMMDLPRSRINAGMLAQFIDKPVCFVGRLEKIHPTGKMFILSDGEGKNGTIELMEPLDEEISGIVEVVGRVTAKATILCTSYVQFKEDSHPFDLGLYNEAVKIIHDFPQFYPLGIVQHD

T2 sequence (P27694 whole entry): as the sequence (P27694 whole entry, chain 1 of 3) above
T2 sequence (P15927 whole entry partner): as the sequence (P15927 whole entry, chain 2 of 3) above
T2 sequence (P35244 whole entry partner): as the sequence (P35244 whole entry, chain 3 of 3) above
T1 sequence (P27694 whole entry): as the sequence (P27694 whole entry, chain 1 of 3) above
T1 sequence (P15927 whole entry partner): as the sequence (P15927 whole entry, chain 2 of 3) above
T1 sequence (P35244 whole entry partner): as the sequence (P35244 whole entry, chain 3 of 3) above

In the case of `O=C1C=Cc2ccccc2/C1=C/Nc1ccccc1O` [HAMNO, (1Z)-1-[(2-hydroxyanilino)methylidene]naphthalen-2-one], the “levels of ATR phosphorylation events in treated cells” value [1] is given as “lower levels of ATR phosphorylation events”, the “RPA ssDNA binding” value (RPA [2]) is given as “did not disrupt” and the “IC50 for RPA32 phosphorylation (both residues) lower than that of p53 phosphorylation” value (ATR-ATRIP; RPA32 Ser33 and Thr21 vs p53 Ser15) is given as ~ 10 fold. The “ATR-dependent phosphorylation of RPA32 Ser33 and Thr21” value (ATR-ATRIP) was “inhibited” and the “ATR-dependent phosphorylation of p53 Ser15” value (ATR-ATRIP) was “inhibited”.

In the case of `CCOc1ccc2cc(C3CC(c4ccc(I)cc4)=NN3C(=O)CCCC(=O)O)c(Cl)nc2c1` (stereo not drawn) [TDRL-551], the IC50 (RPA [3]) is listed as ~15 µM, the IC50 (ATR-ATRIP; read-out: IC50 for ATR-dependent RPA32 Ser33 phosphorylation) is listed as 5 to 10 µM and the IC50 (ATR-ATRIP; read-out: IC50 for ATR-dependent RPA32 Thr21 phosphorylation) is listed as 5 to 10 µM. For the same molecule, the IC50 (ATR-ATRIP; read-out: IC50 for ATR-dependent p53 Ser15 phosphorylation) was 5 to 10 µM, the “RPA phosphorylation at RPA32 Ser33 and Thr21 at low inhibitor concentration” value (ATR-ATRIP; low concentrations of inhibitor (Fig. 2C, lane 3), not observed with p53 Ser15) was “stimulated” and the “ATR-dependent phosphorylation of RPA32 Ser33 and Thr21” value (ATR-ATRIP) was “dose-dependent inhibition”. The “ATR-dependent phosphorylation of p53 Ser15” value (ATR-ATRIP) was “titratable inhibition”.

For `CS(=O)(=O)c1ccc(-c2cnc(N)c(C(=O)Nc3ccccc3)n2)cc1` [VE-821], the “ATR-dependent phosphorylation of RPA32 Ser33 and Thr21” value (ATR-ATRIP) was “abolished” and the “ATR-dependent phosphorylation of p53 Ser15” value (ATR-ATRIP) was “no p53 phosphorylation is observed”.

B1: polyT 30mer (ssDNA)
DNA: TTTTTTTTTTTTTTTTTTTTTTTTTTTTTT
B1: binds [4].
